The numbers were not newly measured in paper PMC8453901, “GLPG1205, a GPR84 Modulator: Safety, Pharmacokinetics, and Pharmacodynamics in Healthy Subjects” (Clinical Pharmacology in Drug Development, 2021), which cites them from elsewhere.

This data set concerns histological lesions in the lung. Also on record: method as in PMID 29454750. The conditions noted are these: bleomycin-induced mouse model of pulmonary fibrosis, compared with vehicle; cited from earlier work.

Structures are written as SMILES.

`CCCCCc1cccc(CC(=O)O)c1` [PBI‐4050]: the “reduction of histological lesions in the lung” value is reported as 47%.
